According to article PMC8831520, “Small molecule SWELL1 complex induction improves glycemic control and nonalcoholic fatty liver disease in murine Type 2 diabetes” (Nature Communications, 2022):

What was measured:
[1] = tested on: T1, SWELL1-LRRC8 channels in the closed state, HEK-293 cells; test: ICl,SWELL inhibition on preincubation before hypotonic activation (closed channel), patch-clamp; assay type: cell-based; details: 1 μM applied 30 min prior to hypotonic activation, vs vehicle or Inactive compounds
T1 construct: applied when the endogenous HEK-293 cell ICl,SWELL current density reached 30 pA/pF; endogenous in cells; host or cells: HEK-293 (ATCC, #CRL-1573)

[2] = parameters: method as in PMID 3306216; details: cited from earlier work
[3] = In vivo pharmacokinetics; parameters: species or system mouse; details: for T-half / AUC(0-inf) / Cmax / Oral Bioavailability (AUCp.o./AUCi.v.): 5 mg/kg; for T-half / AUC(0-inf) / Cmax / Oral Bioavailability (AUCp.o./AUCi.v.) / time plasma concentrations exceed those sufficient for induction of SWELL1 signaling activity (>~100 nM): mice; for T-half / AUC(0-inf) / Cmax: plasma; for AUC(0-inf) / Cmax: male, C57/BL6, mouse; for time plasma concentrations exceed those sufficient for induction of SWELL1 signaling activity (>~100 nM): 5 mg/kg i.p. or p.o.
Procedure: Male C57/BL6 mice were used in the study and assessed for a single dose (5 mg/kg) administration. The compounds were prepared in Cremaphor for i.p. and p.o dose routes and in 5% ethanol, 10% Tween-20, and water mix for i.v. route at a final concentration of 1 mg/mL. […] The blood samples were collected in tubes with K2 EDTA anticoagulant and further processed to collect plasma by centrifugation at 1383×g at 5 °C for 10 min. Samples were further processed in LC/MS to determine the concentration of the compounds. Non-compartmental analysis was performed to obtain the PK parameters using the PKPlus software package (Simulation Plus). The area under the plasma concentration-time curve (AUCinf) was calculated from time 0 to infinity where the Cmax is the maximal concentration achieved in plasma and t1/2 is the terminal elimination half-life. Oral bioavailability was calculated as AUCOral/AUCIV*100.

[4] = tested on: T2D KKAy mice; test: Euglycemic hyperinsulinemic clamp with tracers; assay type: in vivo, mouse
Procedure: Sterile silicone catheters (Dow-Corning) were placed into the jugular vein of mice under isoflurane anesthesia. The placed catheter was flushed with 200 U/mL heparin in saline and the free end of the catheter was directed subcutaneously via a blunted 14-gauge sterile needle and connected to a small tubing device that exited through the back of the animal. […] Hyperinsulinemic euglycemic clamps were performed on day 8 post-surgery on unrestrained, conscious mice as described elsewhere[82],[83], with some modifications. Mice were fasted for 6 h at which time insulin and glucose infusion were initiated (time 0). At 80 min prior to time 0 basal sampling was conducted, where whole-body glucose flux was traced by infusion of 0.05 μCi/min D-[3-^3H]-glucose (Perkin Elmer), after a priming 5 μCi bolus for 1 min. After the basal period, starting at time 0 D-[3-^3H]-glucose was continuously infused at the rate of 0.2 μCi/min and the infusion of insulin (Humulin, Eli Lilly) was initiated with a bolus of 80 mU/kg/min (10 µl volume for 1 min) then followed by continuous infusion of insulin at the dose of 8 mU/kg/min throughout the assay. Fifty percent dextrose (Hospira) was infused at variable rates (GIR) starting at the same time as the initiation of insulin infusion to maintain euglycemia at the targeted level of 150 mg/dL (8.3 mM). Blood glucose (BG) measurements were taken every ten minutes via tail vein sampling using a Contour glucometer (Bayer). After the mouse reached stable BG and GIR (typically, after 75 min since starting the insulin infusion; for some mice, a long time was required to achieve steady-state) a single bolus of 12 μCi of [1-^14C]-2-deoxy-D-glucose (Perkin Elmer) in 96 μl of saline was administered. Plasma samples (collected from centrifuged blood) for determination of tracers enrichment, glucose level, and insulin concentration were obtained at times −80, −20, −10, 0, and every 10 min starting at 80 min post-insulin (5 min after [1-^14C]-2-deoxy-D-glucose bolus was administered) until the conclusion of the assay at 140 min. Tissue samples were then collected from mice under isofluorane anesthesia from organs of interest (e.g., liver, heart, kidney, white adipose tissue, brown adipose tissue, gastrocnemius, soleus, etc.) for determination of 1-^14C]-2-deoxy-D-glucose tracer uptake. Plasma and tissue samples were processed as described previously. Briefly, plasma samples were deproteinized with Ba(OH)2 and ZnSO4 and dried to eliminate tritiated water. The glucose turnover rate (mg/kg-min) was calculated as the rate of tracer infusion (dpm/min) divided by the corrected plasma glucose specific activity (dpm/mg) per kg body weight of the mouse. Fluctuations from steady-state were accounted for by the use of Steele’s model. Plasma glucose was measured using the Analox GMD9 system (Analox Technologies).
Tissue samples (~30 mg each) were homogenized in 750 µl of 0.5% perchloric acid, neutralized with 10 M KOH, and centrifuged. The supernatant was then used for first measuring the abundance of total [1-^14C] signal (derived from both 1-^14C -2-deoxy-D-glucose, 1-^14C -2-deoxy-D-glucose 6 phosphate) and, following a precipitation step with 0.3 N […] and 0.3 N ZnSO4, for the measuring of non-phosphorylated 1-^14C -2-deoxy-D-glucose. Glycogen was isolated by ethanol precipitation from 30% KOH tissue lysates, as described. Insulin levels in plasma at T0 and T140 were measured using a Stellux ELISA rodent insulin kit (Alpco).

| Structure (SMILES) | subsequent hypotonic activation of ICl,SWELL [1] | diuretic activity [2] | T-half ([3]; Intraperitoneal) [h] | T-half ([3]; Intravenous) [h] | T-half ([3]; Oral) [h] | PK in adipose tissue ([3]; iWAT, 5 mg/kg i.p. and p.o.) | AUC(0-inf) ([3]; ip, Intraperitoneal) [ng·h/mL] | Cmax ([3]; ip, Intraperitoneal) [ng/mL] | AUC(0-inf) ([3]; Intravenous) [ng·h/mL] | Cmax ([3]; Intravenous) [ng/mL] | AUC(0-inf) ([3]; Oral) [ng·h/mL] | Cmax ([3]; Oral) [ng/mL] | Oral Bioavailability (AUCp.o./AUCi.v.) [3] [%] | time plasma concentrations exceed those sufficient for induction of SWELL1 signaling activity (>~100 nM) [3] [h] | glucose incorporation into glycogen in liver, adipose, and skeletal muscle ([4]; KKAy mice) | insulin-stimulated 2-DG uptake into iWAT, gWAT and myocardium ([4]; KKAy mice) | glucose-infusion rate (GIR) to maintain euglycemia ([4]; KKAy mice, 5 mg/kg i.p. 4 days, vs vehicle) | reduction of rate of glucose appearance (Ra) ([4]; baseline (Basal)) [%] | suppression of rate of glucose appearance (Ra) ([4]; during glucose/insulin infusion (Clamp)) [%] |
| --- | --- | --- | --- | --- | --- | --- | --- | --- | --- | --- | --- | --- | --- | --- | --- | --- | --- | --- | --- |
| CCCCC1(C2CCCC2)Cc2cc(OCCCC(=O)O)c(Cl)c(Cl)c2C1=O (stereo not shown) [SN-401, 4-((2-butyl-6,7-dichloro-2-cyclopentyl-1-oxo-2,3-dihydro-1H-inden-5-yl)oxy)butanoic acid] | markedly suppressed and delayed | minimal diuretic activity | 2.056 | 1.428 | 2.585 | closely tracks serum concentrations | 23000 | 4370 | 5960 | 5440 | 4680 | 781 | 79 | 8 to 12 | markedly increased | enhanced | higher | 40 | 75 |
| CCCCC1(C2CCCC2)Cc2cc(OCCCCCC(=O)O)c(Cl)c(Cl)c2C1=O (stereo not shown) [SN-406, 6-((2-butyl-6,7-dichloro-2-cyclopentyl-1-oxo-2,3-dihydro-1H-inden-5-yl)oxy)hexanoic acid] | markedly suppressed and delayed | – | 1.809 | 0.7689 | 2.058 | – | 18200 | 4300 | 6530 | 15100 | 3130 | 661 | 48 | 8 to 12 | – | – | – | – | – |
